Assays:
Experiment in all cases: Colony formation (CFU) assay
Assay type in all cases: cell-based
SAOS2 = conditions: Homo sapiens, SAOS-2; SAOS2, bone
In short: (§1)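 Absorbance at 565 nm of crystal violet extracted with 10% acetic acid measures colony mass. Cells grow ~14 days in six-well plates, exposed from day 8 to USP1 inhibitor, niraparib, olaparib or DMSO.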

JHH7 = conditions: JHH7, liver
In short: as §1

MG63 = conditions: Homo sapiens, MG-63; MG63, bone
In short: as §1

OVA2BUR = conditions: ovary
In short: as §1

HS888T = conditions: bone
In short: as §1

SCC25 = conditions: Homo sapiens, SCC-25; SCC25, head and neck
In short: as §1

SNU81 = conditions: SNU81, colon
In short: as §1

SNU626 = conditions: SNU626, nervous system
In short: as §1

OVSAHO = conditions: Homo sapiens, ovary
In short: as §1

59M = conditions: ovary
In short: as §1

HCC95 = conditions: Homo sapiens; HCC95, lung
In short: as §1

KALS1 = conditions: Homo sapiens, KALS-1; KALS1, nervous system
In short: as §1

SUIT2 = conditions: SUIT-2; SUIT2, pancreas
In short: as §1

HOS = conditions: Homo sapiens, bone
In short: as §1

HCC1500 = conditions: HCC1500, breast
In short: as §1

T174 = conditions: T174, breast
In short: as §1

BICR56 = conditions: BICR56, head and neck
In short: as §1

SKOV3_BRCA1null = conditions: ovary
In short: as §1

SKOV3_ATMnull = conditions: ovary
In short: as §1

FADU = conditions: Homo sapiens, head and neck
In short: as §1

HPAFII = conditions: Homo sapiens, HPAF-II, pancreas
In short: as §1

GSU = conditions: stomach
In short: as §1

HT1080 = conditions: Homo sapiens, HT-1080; HT1080, soft tissue
In short: as §1

CCK81 = conditions: CCK81, colon
In short: as §1

SNU8 = conditions: SNU8, ovary
In short: as §1

BICR78 = conditions: BICR78, head and neck
In short: as §1

HBCx8 = conditions: HBCx8, breast
In short: as §1

CHAGOK1 = conditions: Homo sapiens, ChaGo-K-1; CHAGOK1, lung
In short: as §1

HBCx19 = conditions: HBCx19, breast
In short: as §1

KYSE410 = conditions: Homo sapiens, KYSE-410; KYSE410, esophagus
In short: as §1

KYSE270 = conditions: Homo sapiens, KYSE-270; KYSE270, esophagus
In short: as §1

HBCx6 = conditions: HBCx6, breast
In short: as §1

UWB1289 = conditions: for sensitivity to single agents: UWB1.289, BRCA1 mutant ovarian cell line; for IC50: UWB1289, ovary
In short: as §1

HS739T = conditions: breast
In short: as §1

SNU489 = conditions: SNU489, nervous system
In short: as §1

SNU213 = conditions: SNU213, pancreas
In short: as §1

TE14 = conditions: TE14, esophagus
In short: as §1

HCC2108 = conditions: HCC2108, lung
In short: as §1

LUDLU1 = conditions: LUDLU-1; LUDLU1, lung
In short: as §1

Structure (SMILES): COc1ncnc(C2CC2)c1-c1ncc2cnn(Cc3ccc(-c4nc(C(F)(F)F)cn4C)cc3)c2n1 [Formula II, 6-(4-cyclopropyl-6-methoxypyrimidin-5-yl)-1-(4-(1-methyl-4-(trifluoromethyl)-1H-imidazol-2-yl)benzyl)-1H-pyrazolo[3,4-d]pyrimidine]
- IC50 (SAOS2): > 300 nM
- IC50 (JHH7): > 300 nM
- IC50 (MG63): > 300 nM
- IC50 (OVA2BUR): > 300 nM
- IC50 (HS888T): > 300 nM
- IC50 (SCC25): > 300 nM
- IC50 (SNU81): 10.2 nM
- IC50 (SNU626): > 300 nM
- IC50 (OVSAHO): > 300 nM
- IC50 (59M): 34.9 nM
- IC50 (HCC95): > 300 nM
- IC50 (KALS1): > 300 nM
- IC50 (SUIT2): > 300 nM
- IC50 (HOS): > 300 nM
- IC50 (HCC1500): > 300 nM
- IC50 (T174): > 300 nM
- IC50 (BICR56): > 300 nM
- IC50 (SKOV3_BRCA1null): > 300 nM
- IC50 (SKOV3_ATMnull): > 300 nM
- IC50 (FADU): > 300 nM
- IC50 (HPAFII): > 300 nM
- IC50 (GSU): > 300 nM
- IC50 (HT1080): > 300 nM
- IC50 (CCK81): > 300 nM
- IC50 (SNU8): > 300 nM
- IC50 (BICR78): > 300 nM
- IC50 (HBCx8): > 300 nM
- IC50 (CHAGOK1): > 300 nM
- IC50 (HBCx19): > 300 nM
- IC50 (KYSE410): > 300 nM
- IC50 (KYSE270): > 300 nM
- IC50 (HBCx6): > 300 nM
- sensitivity to single agents (UWB1289): sensitive
- IC50 (UWB1289): 22.3 nM
- IC50 (HS739T): > 300 nM
- IC50 (SNU489): > 300 nM
- IC50 (SNU213): > 300 nM
- IC50 (TE14): > 300 nM
- IC50 (HCC2108): > 300 nM
- IC50 (LUDLU1): > 300 nM

Structure (SMILES): NC(=O)c1cccc2cn(-c3ccc([C@@H]4CCCNC4)cc3)nc12 [Niraparib, niraparib, reference compound]
- IC50 (SAOS2): 201 nM
- IC50 (JHH7): > 300 nM
- IC50 (MG63): > 300 nM
- IC50 (OVA2BUR): > 300 nM
- IC50 (HS888T): > 300 nM
- IC50 (SCC25): > 300 nM
- IC50 (SNU81): 18.6 nM
- IC50 (SNU626): > 300 nM
- IC50 (OVSAHO): > 300 nM
- IC50 (59M): 63.4 nM
- IC50 (HCC95): > 300 nM
- IC50 (KALS1): > 300 nM
- IC50 (SUIT2): > 300 nM
- IC50 (HOS): > 300 nM
- IC50 (HCC1500): 61.1 nM
- IC50 (T174): > 300 nM
- IC50 (BICR56): > 300 nM
- IC50 (SKOV3_BRCA1null): 262 nM
- IC50 (SKOV3_ATMnull): > 300 nM
- IC50 (FADU): > 300 nM
- IC50 (HPAFII): > 300 nM
- IC50 (GSU): > 300 nM
- IC50 (HT1080): > 300 nM
- IC50 (CCK81): > 300 nM
- IC50 (SNU8): > 300 nM
- IC50 (BICR78): > 300 nM
- IC50 (HBCx8): 107 nM
- IC50 (CHAGOK1): > 300 nM
- IC50 (HBCx19): > 300 nM
- IC50 (KYSE410): > 300 nM
- IC50 (KYSE270): 16.9 nM
- IC50 (HBCx6): 30.4 nM
- sensitivity to single agents (UWB1289): sensitive
- IC50 (UWB1289): 28.4 nM
- IC50 (HS739T): > 300 nM
- IC50 (SNU489): > 300 nM
- IC50 (SNU213): > 300 nM
- IC50 (TE14): > 300 nM
- IC50 (HCC2108): 95.5 nM
- IC50 (LUDLU1): > 300 nM
